We go through 32 compounds from ChEMBL document CHEMBL1131950, “Reversal of P-glycoprotein mediated multidrug resistance by novel anthranilamide derivatives” (Bioorg Med Chem Lett, 1999).

pEC50, pIC50: −log10 of the molar value.

One test concerns EMT6. Kind of test: Reversal effect on the accumulation of [3H]- daunorubicin in mouse mammary carcinoma cell line EMT6/AR 1.0.
Conditions: not given
Type of test: functional, cell-based.
As for `COc1cc2c(cc1OC)CN(CCc1ccc(NC(=O)c3cc(OC)c(OC)cc3NC(=O)c3cnc4ccccc4c3)cc1)CC2` [TARIQUIDAR], the pIC50 was 7.42.

The test is the same for the next values; noted with them: read-out: IC50.
As to `COc1ccc(CCn2c(-c3ccc(N(C)C)cc3)nc3ccccc3c2=O)cc1OC`, the pIC50 is 5.30.
On the same count and under the same terms, the figure for `COc1cc2c(cc1OC)CN(CCNC(=O)c1ccccc1NC(=O)c1ccc(N(C)C)cc1)CC2` is 5.62.
Still for that read-out and setting: the figure for `COc1cc2c(cc1OC)CN(CCc1ccc(NC(=O)c3ccccc3Oc3ccccc3)cc1)CC2` is 5.57; for `COc1cc2c(cc1OC)CN(CCc1ccc(NC(=O)c3ccccc3NC(=O)c3cccnc3)cc1)CC2` it is 6.06.
Still for that read-out and setting: the figure for `COc1cc2c(cc1OC)CN(CCc1ccc(NC(=O)c3ccccc3NC(=O)c3ccc4ccccc4n3)cc1)CC2` is 6.10.
In the case of `COc1cc2c(cc1OC)CN(CCc1ccc(NC(=O)c3ccccc3NC(=O)c3ccccn3)cc1)CC2`, the pIC50 was 6.17.
Regarding `COc1cc2c(cc1OC)CN(CCc1ccc(NC(=O)c3cccc(/C=c4\[nH]c(=O)/c(=C/c5ccccc5)n(C)c4=O)c3)cc1)CC2`, the pIC50 was 6.66.
The same measure, in the same setting: for `COc1cc2c(cc1OC)CN(CCc1ccc(NC(=O)c3ccccc3NC(=O)c3ccco3)cc1)CC2` the value was 5.48; for `COc1cc2c(cc1OC)CN(CCc1ccc(NC(=O)c3ccccc3NC(=O)c3cnc(C)cn3)cc1)CC2`, 7.17; for `COc1cc2c(cc1OC)CN(CCc1ccc(NC(=O)c3ccc([N+](=O)[O-])cc3NC(=O)c3cnc4ccccc4c3)cc1)CC2`, 7.35.
The same measure, in the same setting: the figure for `COc1cc2c(cc1OC)CN(CCc1ccc(NC(=O)c3ccccc3NC(=O)c3cc4ccccc4cn3)cc1)CC2` is 5.31; for `COc1cc2c(cc1OC)CN(CCNC(=O)c1ccccc1NC(=O)c1ccc(C3CCCCC3)cc1)CC2` it is 5.80.
The same measure, in the same setting: the figure for `COc1cc2c(cc1OC)CN(CCc1ccc(NC(=O)c3ccccc3NC(=O)c3ccsc3)cc1)CC2` is 6.14; for `COc1cc2c(cc1OC)CN(CCc1ccc(NC(=O)c3ccccc3NC(=O)c3cnccn3)cc1)CC2` it is 6.69.
In the case of `COc1cc2c(cc1OC)CN(CCc1ccc(NC(=O)c3ccccc3-c3ccccc3)cc1)CC2`, the pIC50 was 5.77.
With `COc1cc2c(cc1OC)CN(CCc1ccc(NC(=O)c3ccccc3C(=O)c3ccccc3)cc1)CC2`, the pIC50 is 5.96.
Same read-out and setting: for `COc1cc2c(cc1OC)CN(CCc1ccc(NC(=O)c3cc(Cl)ccc3NC(=O)c3cnc4ccccc4c3)cc1)CC2` the value was 6.83; for `COc1cc2c(cc1OC)CN(CCc1ccc(NC(=O)c3cc(F)ccc3NC(=O)c3cnc4ccccc4c3)cc1)CC2`, 7.22; for `COc1cc2c(cc1OC)CN(CCc1ccc(NC(=O)c3ccccc3NC(=O)c3ccc(C)nc3)cc1)CC2`, 7.17.
Take `COc1cc2c(cc1OC)CN(CCNC(=O)c1ccccc1NC(=O)c1ccccc1)CC2`: the pIC50 is 5.17.
In the case of `COc1cc2c(cc1OC)CN(CCc1ccc(NC(=O)c3cc(C)ccc3NC(=O)c3cnc4ccccc4c3)cc1)CC2`, the pIC50 was 6.66.
On the same count and under the same terms, for `COc1cc2c(cc1OC)CN(CCc1ccc(NC(=O)c3ccccc3NC(=O)c3ccccc3)cc1)CC2` the value was 6.60; for `COc1cc2c(cc1OC)CN(CCc1ccc(NC(=O)c3cc(N(C)C)ccc3NC(=O)c3cnc4ccccc4c3)cc1)CC2`, 6.53; for `COc1cc2c(cc1OC)CN(CCc1ccc(NC(=O)c3ccc(F)cc3NC(=O)c3cnc4ccccc4c3)cc1)CC2`, 7.42.
Same read-out and setting: the figure for `COc1cc2c(cc1OC)CN(CCc1ccc(NC(=O)c3ccccc3NC(=O)c3cnc4ccccc4n3)cc1)CC2` is 7.04; for `COc1cc2c(cc1OC)CN(CCc1ccc(NC(=O)c3ccc(Cl)cc3NC(=O)c3cnc4ccccc4c3)cc1)CC2` it is 6.85; for `COc1cc2c(cc1OC)CN(CCc1ccc(NC(=O)c3ccccc3NC(=O)c3ccoc3)cc1)CC2` it is 6.04.
Same read-out and setting: the figure for `COc1cc2c(cc1OC)CN(CCc1ccc(NC(=O)c3ccccc3Sc3ccccc3)cc1)CC2` is 5.64.
Take `COc1cc2c(cc1OC)CN(CCc1ccc(NC(=O)c3ccccc3NC(=O)c3ccc(C(C)C)cc3)cc1)CC2`: the pIC50 is 6.07.
With `COc1cc2c(cc1OC)CN(CCNC(=O)c1ccccc1NC(=O)c1ccc(C(C)C)cc1)CC2`, the negative logarithm of the IC50 (pIC50) is 5.96.
Still for that read-out and setting: for `COc1cc2c(cc1OC)CN(CCc1ccc(NC(=O)c3ccccc3NC(=O)c3cnc4ccccc4c3)cc1)CC2` the value was 7.06.

The test system of the next test is MDR. The test can be described thus: Potency tested against multidrug resistance (MDR) cell lines expressing P-gp (P-glycoprotein). Type of test: functional, cell-based.
Conditions: not given
Compound `COc1cc2c(cc1OC)CN(CCc1ccc(NC(=O)c3cc(F)ccc3NC(=O)c3cnc4ccccc4c3)cc1)CC2` showed a pEC50 of 7.57.
The same measure, in the same setting: the figure for `COc1cc2c(cc1OC)CN(CCc1ccc(NC(=O)c3ccccc3NC(=O)c3cnc4ccccc4n3)cc1)CC2` is 7.72; for `COc1cc2c(cc1OC)CN(CCc1ccc(NC(=O)c3ccccc3NC(=O)c3cnc4ccccc4c3)cc1)CC2` it is 7.52.
Still for that read-out and setting: the figure for `COc1cc2c(cc1OC)CN(CCc1ccc(NC(=O)c3cc(OC)c(OC)cc3NC(=O)c3cnc4ccccc4c3)cc1)CC2` [TARIQUIDAR] is 7.79.
